Literature values as cited in patent US6399093B1, “Method and composition to treat musculoskeletal disorders” (Advanced Medical Instruments, priority 1999, dated 2002).

Tests used:
[1] = oral
[2] = oral diclofenac group
[3] = after oral administration

With `COc1cc2c(c(OC)c1OC)-c1ccc(OC)c(=O)cc1[C@@H](NC(C)=O)CC2` [colchicine, Colchicine] as the compound, how does the “Patients unable to tolerate an optimal dose because of gastrointestinal side effects” value [1] read?
Its value is “Eighty”.

Which “Number of GI reactions relative to the topical eltenac group” value [2] does the source give for `O=C(O)Cc1ccccc1Nc1c(Cl)cccc1Cl` [diclofenac] here?
Its value is “three”.

With `N[C@H]1C(O)O[C@H](CO)[C@@H](O)[C@@H]1O.O=S(=O)(O)O` (stereo partly drawn) [glucosamine sulfate] as the compound, how does the “Onset of clinical improvement of symptoms” value [3] read?
The value was “one”.
